Experimental data as given in patent US12691092B2, “Method for reducing cutaneous skin scarring by pre-emptive priming and compounds and compositions for its implementation” (SOS SCIENCE OF SKIN LTD, priority 2020, dated 2026).

Tests used:
[1] = test system: zone of injury; conditions: topical EGCG, zonal priming; cited from earlier work
[2] = test system: CD31; assay: CD31 angiogenic immunohistochemical marker in scar biopsies; type: in vivo, human
Experimental: A double-blind randomized placebo-controlled trial was conducted using a temporal punch-biopsy model. The punch biopsy and topical application methodology used in the study is illustrated in FIG. 1, namely showing pre-injury pre-emptive priming (7-days), pre-injury pre-emptive priming (3-days), day of injury (immediate application on day 0), post-injury (delayed 2 weeks post injury) including biopsy time points and time of topical applications. Each group applied both placebo and topical formulations twice daily for the duration of the study until week 8, with only the starting time point differing between groups Participants were split into 4 groups (n=10 in each group) in order to compare different modes (timings) of commencement of the topical application: • Group-1: Pre-emptive Priming (7-days): pre-injury • Group-2: Pre-emptive Priming (3-days): pre-injury • Group-3: Immediate (0-day): day-of-injury • Group-4: Delayed (14-days): post-injury Clinical quantitative devices were used to objectively monitor cutaneous healing at weekly intervals and punch biopsies were performed on day 0 (uninjured skin) and at weeks 4 and 8 for protein and gene expression analyses. In the trial, topical EGCG and a placebo topical were applied twice daily for the duration of the trial until week 8 with only the starting time points differing between groups. Clinical and experimental analysis involved use of non-invasive devices as well as protein and gene studies. Excisional skin biopsies in upper arms were evaluated weekly with multiple quantitative devices over an 8-week period. […] In order to further support these findings and the clinical findings, two well-known and established angiogenic immunohistochemical markers; CD31 and VEGF-A were used. […] There was a significant difference between groups (p=0.02) at week-4.

[3] = test system: human skin scarring model; assay: Viscoelasticity of scars by clinical elastin probe; type: in vivo
Experimental: (§1) A double-blind randomized placebo-controlled trial was conducted using a temporal punch-biopsy model. The punch biopsy and topical application methodology used in the study is illustrated in FIG. 1, namely showing pre-injury pre-emptive priming (7-days), pre-injury pre-emptive priming (3-days), day of injury (immediate application on day 0), post-injury (delayed 2 weeks post injury) including biopsy time points and time of topical applications. Each group applied both placebo and topical formulations twice daily for the duration of the study until week 8, with only the starting time point differing between groups Participants were split into 4 groups (n=10 in each group) in order to compare different modes (timings) of commencement of the topical application: • Group-1: Pre-emptive Priming (7-days): pre-injury • Group-2: Pre-emptive Priming (3-days): pre-injury • Group-3: Immediate (0-day): day-of-injury • Group-4: Delayed (14-days): post-injury Clinical quantitative devices were used to objectively monitor cutaneous healing at weekly intervals and punch biopsies were performed on day 0 (uninjured skin) and at weeks 4 and 8 for protein and gene expression analyses. In the trial, topical EGCG and a placebo topical were applied twice daily for the duration of the trial until week 8 with only the starting time points differing between groups. […]

[4] = test system: VEGF-A; assay: Gene expression analysis of VEGF-A; type: in vivo, human; conditions: week 4, groups 1-2 and 4, p<0.05
Experimental: as §1, with “[…] Excisional skin biopsies in upper arms” for “In the trial, topical EGCG and a placebo topical”, “evaluated weekly” for “applied twice daily for the duration of the trial until week 8”, “multiple quantitative devices over an 8-week period.” for “only the starting time points differing between groups.”

[5] = test system: elastin; assay: Gene expression analysis of elastin; type: in vivo, human; conditions: weeks 4 and 8; significant in groups-1 to 3 at week 8 (p<0.05)
Experimental: as §1, with “[…] Excisional skin biopsies in upper arms” for “In the trial, topical EGCG and a placebo topical”, “evaluated weekly” for “applied twice daily for the duration of the trial until week 8”, “multiple quantitative devices over an 8-week period.” for “only the starting time points differing between groups.”

## O=C(OC1Cc2c(O)cc(O)cc2OC1c1cc(O)c(O)c(O)c1)c1cc(O)c(O)c(O)c1 (single isomer, unassigned; (-)) [EGCG, (-)-epigallocatechin-3-gallate]
[1]
  Scar outcome, immediate application to zone of injury compared with delayed application two-weeks post-wounding: reduced scar thickness and angiogenesis, plus increased hydration and elasticity
[2]; primed uninjured skin prior to injury
  Angiogenic markers in primed uninjured skin: reduces angiogenic markers
[2]; week 4, 7-day priming vs delayed, p=0.01
  CD31: larger reduction in group 1 compared to group-4: 40%
[2]; weeks 4 and 8, all groups, p<0.01
  CD31 in EGCG-treated samples compared with placebo: significantly down-regulated
[3]; group-1 weeks 1, 7, 8, group-2 week 8, group-3 week 8, group-4 week 7
  Elasticity (viscoelasticity), EGCG-treated arms compared to placebo-treated arms: significantly increased
[3]; week 8, p=0.029
  Elasticity, between group comparison, group-1 vs group-4: significantly increased elastin more than group-4
[4]
  VEGF-A gene expression, EGCG-treated samples compared to placebo: significant reductions
[5]
  Elastin gene expression, EGCG-treated samples compared to placebo: upregulation
